{
  "source": "patent US10463609B2",
  "about": "“Dendrimers for sustained release of compounds” (WAYNE STATE UNIVERSITY, priority 2007, dated 2019)",
  "key": {"RCS rats [1]": {"system": "RCS rats", "assay": "ERG b-wave amplitudes, FA IDDIs in RCS rats", "assay_type": "in vivo, rat", "method": "In other experiments, fluocinolone acetonide preserved electroretinogram b-wave amplitudes in treated eyes. The ONL data were consistent with ERG findings in the same animals (FIG. 9A). […] Although mean b-wave amplitude values in the eyes treated with FA 0.5 μg/day were quantitatively lower than the values in the eyes treated with FA 0.2 μg/day, there was no statistically significant difference between them (p=0.113).\nQuantitatively, the left eye-ERG b-wave amplitudes of the FA 0.2 μg/day-treated group at the four-week time point were greater than those of control right and left eyes and placebo group-right and left eyes. […] The fellow-eye effects were attributed to drug-crossover. This is commonly seen in small mammals in which the volume of distribution is small."}, "[2]": {"system": "activated retinal microglial cells", "assay": "Quantitative histology of activated retinal microglial cells by ED-1 immunolabelling, FA IDDIs in RCS rats", "assay_type": "in vivo, rat", "details": "p<0.001", "method": "FA suppressed neuroinflammation in RCS rats. In examining the mechanism of action of FA in preserving the ONL and ERG in the RCS rat, quantitative histological analysis of activated retinal microglial cells were performed using ED-1 immunolabelling. The photoreceptor layer and outer debris zone in RCS rats contain damaged lipid membranes that amplified photoreceptor damage by activating microglia to become phagocytic and release toxic substances such as tumor-necrosis factor alpha (TNF-α)."}, "[3]": {"assay": "Water solubility of the conjugate", "assay_type": "physicochemical", "excerpt": "The glutaric acid spacer relieves the steric hindrance on the dendrimer surface, enabling intracellular drug release.\nThe filtrate was dialysed against DMSO for three days by replacing DMSO after each day (dialysis membrane cutoff 1000 Da) to remove unreacted compounds. The dialyzed product was dried under vacuum to obtain conjugate. ^1H-NMR was used to characterize the conjugate."}, "[4]": {"assay": "Drug release from PLGA microspheres", "assay_type": "physicochemical", "details": "~5-10 μm PLGA microspheres containing 5% by mass of FA", "method": "Drug release from PLGA microspheres was studied as follows. The drug release kinetics for free fluocinolone acetonide was analyzed for the same PLGA microspheres. For ˜5 -10 μm microspheres (containing 5% by mass of FA), the release was ˜0.5 μg/day (average) for the first thirty days, with a cumulative release of ˜30% in one month. There was 3% initial burst in the first three days. For dendrimer-FA conjugates, the initial burst may be capable of elimination due to their relatively larger size."}, "RCS rats [5]": {"system": "RCS rats", "assay": "Quantitative histology of ONL and INL cells, FA sustained-release intravitreal drug delivery implants (IDDIs) in RCS rats", "assay_type": "in vivo, rat", "excerpt": "According to this Example, the steroid fluocinolone acetonide (FA) was highly neuroprotective in slowing the retinal degeneration of RCS rats when delivered via sustained-release intravitreal drug delivery implants (IDDIs)."}, "RCS rats [6]": {"system": "RCS rats", "assay": "Electroretinography after single intravitreal injection of D-FA or free FA in RCS rats", "assay_type": "in vivo, rat", "details": "for ERG a-wave amplitude change, OD / ERG a-wave amplitude change, OS / ERG b-wave amplitude change, OD / ERG b-wave amplitude change, OS: Mean±Standard Error", "method": "Neuroprotective effects of dendrimer-FA (D-FA) nanodevices were determined as follows. The neuroprotective effects of intravitreally-injected D-FA nanodevices to free-FA injections and IDDIs that release free-FA at a sustained daily rate were compared. […] Here the 1 μg and 3 μg refer to the FA content in D-FA. ONL cell densities were higher for D-FA than those measured for IDDIs and free FA injections.\nThe efficacy was analyzed using electroretinography (ERG) and histology.\nThirty albino RCS rats aged five weeks were divided into six equal groups. The experiments were terminated at nine weeks. Thus, the efficacy was evaluated over the four-week peak period of retinal degeneration in the RCS rats. The groups were: • 1. intravitreal injection of 3.0 μg dendrimer-conjugated fluocinolone acetonide (FA) in 1.0 μL of Phosphate Buffered Solution (PBS); • 2. intravitreal injection of 1.0 μg dendrimer-conjugated FA in 1.0 μL of PBS; • 3. intravitreal injection of 3.0 μg FA in 1.0 μL of PBS; • 4. intravitreal injection of 1.0 μg FA in 1.0 μL of PBS; • 5. intravitreal injection of 1 μL of PBS (vehicle control); • 6. light-exposed unoperated controls."}, "[7]": {"system": "Royal College of Surgeons retinal degeneration model (RCS) rats", "assay": "Retinal biodistribution after intravitreal injection, epi-fluorescence histology of retinal cryosections, RCS rats", "assay_type": "in vivo, rat", "excerpt": "Retinal biodistribution of free-FITC and dendrimer-conjugated FITC (D-FITC) in healthy Sprague-Dawley (SD) and Royal College of Surgeons retinal degeneration model (RCS) rats with active neuroinflammation was studied. Epi-fluorescence histology from retinal cryosections performed 24-hours and ten days after intravitreal injection is shown in […] as follows.\nThe first set of results is shown in FIGS. 10A-10F, epi-fluorescence histology from retinal cryosections performed twenty four hours and ten days after intravitreal injection, showing (FIG. 10A) D-FITC distribution in normal SD rats at twenty four hours, and (FIG. 10B) D-FITC distribution in the RCS retinal neurodegeneration model at twenty four hours. The concentration of D-FITC within the outer nuclear layer (denoted by *) and debris zone are significant findings.\nThe D-FITC localization in the outer-retina was further analyzed by immunohistochemical labeling for activated microglial cells, astrocytes, and Mueller cells and the photoreceptors (as shown in FIGS. 11A-11D, FIGS. 12A-12B, FIGS. 13A-13D, FIG. 14, and FIGS. 15A-15B). […] There was minimal accumulation in the other cells in the inner and outer retina. FIGS. 11A-11D show Microglial uptake of D-FITC. (FIG. 11A) ED-1 immuno-histochemical labeling of inner-retinal microglial cells; (FIG. 11B) D-FITC uptake within inner retinal microglia (60×); (FIG. 11C) outer retinal ED-1 labeled activated microglia; and (FIG. 11D) D-FITC uptake within activated microglia."}, "[8]": {"details": "FA 0.5 μg/day IDDI, treated eyes, four-week study"}, "[9]": {"details": "1.0 μg intravitreal in 1.0 μL PBS, end of study vs beginning"}, "[10]": {"details": "3.0 μg intravitreal in 1.0 μL PBS, end of study vs beginning"}},
  "data": [
    {"molecule": "CC1(C)O[C@@H]2C[C@H]3[C@@H]4C[C@H](F)C5=CC(=O)C=C[C@]5(C)[C@@]4(F)[C@@H](O)C[C@]3(C)[C@]2(C(=O)CO)O1", "note": "[FA, fluocinolone acetonide]", "values": [
      {"measurement": "mean four-week postoperative ERG b-wave amplitudes, treated eyes", "setting": "RCS rats [1]; 0.2 μg/day and 0.5 μg/day FA IDDIs, p<0.001", "result": "significantly greater than those of the unoperated control and placebo-treated eyes"},
      {"measurement": "mean ERG b-wave amplitudes of left (fellow) eyes", "setting": "RCS rats [1]; FA 0.2 μg/day IDDI group vs placebo-treated or control eyes", "result": "No statistically significant differences"},
      {"measurement": "mean ERG b-wave amplitudes of left (fellow) eyes", "setting": "RCS rats [1]; FA 0.5 μg/day IDDI group, four weeks, cross-over effect", "result": "significantly different from those of right and left eyes of unoperated control animals"},
      {"measurement": "activated microglial cell densities in the debris layer vs eyes with inactive IDDIs", "setting": "[2]; FA 0.2 μg/day IDDI", "result": "nine-fold decrease"},
      {"measurement": "activated microglial cell densities in the debris layer vs non-surgical control eyes", "setting": "[2]; FA 0.2 μg/day IDDI", "result": "five-fold decrease"},
      {"measurement": "debris zone activated microglial density vs eyes with inactive IDDIs", "setting": "[2]; FA 0.5 μg/day IDDI", "result": "seven times lower"},
      {"measurement": "debris zone activated microglial density vs non-surgical control eyes", "setting": "[2]; FA 0.5 μg/day IDDI", "result": "four times lower"},
      {"measurement": "solubility in water", "setting": "[3]", "result": "not water soluble at comparable concentrations"},
      {"measurement": "release rate (average)", "setting": "[4]; first thirty days", "result": "~0.5", "unit": "µg/day"},
      {"measurement": "initial burst", "setting": "[4]; first three days", "result": 3, "unit": "%"},
      {"measurement": "cumulative release", "setting": "[4]; in one month", "result": "~30", "unit": "%"},
      {"measurement": "ONL cell densities relative to inactive IDDI group", "setting": "RCS rats [5]; FA 0.2 μg/day IDDI, treated eyes, four-week study", "result": "4.85±0.24", "unit": "times"},
      {"measurement": "ONL cell densities relative to non-surgical controls", "setting": "RCS rats [5]; FA 0.2 μg/day IDDI, treated eyes, four-week study, nine-week RCS rats", "result": "2.38±0.12", "unit": "times"},
      {"measurement": "ONL counts relative to eyes that received inactive IDDIs", "setting": "RCS rats [5]; [8]", "result": "3.56±0.17", "unit": "times"},
      {"measurement": "ONL counts relative to non-surgical control eyes", "setting": "RCS rats [5]; [8]", "result": "1.78±0.21", "unit": "times"},
      {"measurement": "inner nuclear layer cell counts between groups", "setting": "RCS rats [5]; FA 0.2 and 0.5 μg/day IDDIs vs inactive implants and non-surgical controls", "result": "No significant differences"},
      {"measurement": "ERG a-wave amplitude change, OD", "setting": "RCS rats [6]; [9]", "result": "−41.9 ± 13.4", "unit": "%"},
      {"measurement": "ERG a-wave amplitude change, OS", "setting": "RCS rats [6]; [9]", "result": "−47.8 ± 7.7", "unit": "%"},
      {"measurement": "ERG b-wave amplitude change, OD", "setting": "RCS rats [6]; [9]", "result": "−64.2 ± 8.6", "unit": "%"},
      {"measurement": "ERG b-wave amplitude change, OS", "setting": "RCS rats [6]; [9]", "result": "−55.6 ± 3.6", "unit": "%"},
      {"measurement": "ERG a-wave amplitude change, OD", "setting": "RCS rats [6]; 3.0 μg intravitreal in 1.0 μL PBS, end of study (9 weeks of age) vs beginning (5 weeks), loss (−)/gain (+) from initial amplitude", "result": "−12.5 ± 28.8", "unit": "%"},
      {"measurement": "ERG a-wave amplitude change, OS", "setting": "RCS rats [6]; [10]", "result": "−10.5 ± 30.1", "unit": "%"},
      {"measurement": "ERG b-wave amplitude change, OD", "setting": "RCS rats [6]; [10]", "result": "−42.6 ± 3.3", "unit": "%"},
      {"measurement": "ERG b-wave amplitude change, OS", "setting": "RCS rats [6]; [10]", "result": "−40.8 ± 3.5", "unit": "%"},
      {"measurement": "end-point ERG a-wave (photoreceptor response) amplitudes", "setting": "RCS rats [6]; at nine weeks of age, right vs left eyes", "result": "not true"}
    ]},
    {"molecule": "fluorescein isothiocyanate [Free-FITC]", "values": [
      {"measurement": "retinal distribution at 24 hours", "setting": "[7]; RCS rats, 24 hours after intravitreal injection", "result": "uniformly distributed"},
      {"measurement": "retinal retention at ten days", "setting": "[7]; RCS rats, ten days after intravitreal injection", "result": "cleared from the retina"},
      {"measurement": "FITC fluorescence in the retinal pigment epithelium (RPE)", "setting": "[7]; after intravitreal injection, 24 hours, similar at ten days", "result": "No FITC fluorescence was observed"}
    ]}
  ]
}
